Target: Runt-related transcription factor 1 (Homo sapiens) + Core-binding factor subunit beta (Homo sapiens) (UniProt Q01196+Q13951)
Assay: Runt domain/CBFb-SMMHC interaction disruptors – biochemical, TR-FRET (AID 1438)

Runt-related transcription factor 1 (Homo sapiens) + Core-binding factor subunit beta (Homo sapiens), sequence (Q01196 whole entry, looked up, the tested form may be a part): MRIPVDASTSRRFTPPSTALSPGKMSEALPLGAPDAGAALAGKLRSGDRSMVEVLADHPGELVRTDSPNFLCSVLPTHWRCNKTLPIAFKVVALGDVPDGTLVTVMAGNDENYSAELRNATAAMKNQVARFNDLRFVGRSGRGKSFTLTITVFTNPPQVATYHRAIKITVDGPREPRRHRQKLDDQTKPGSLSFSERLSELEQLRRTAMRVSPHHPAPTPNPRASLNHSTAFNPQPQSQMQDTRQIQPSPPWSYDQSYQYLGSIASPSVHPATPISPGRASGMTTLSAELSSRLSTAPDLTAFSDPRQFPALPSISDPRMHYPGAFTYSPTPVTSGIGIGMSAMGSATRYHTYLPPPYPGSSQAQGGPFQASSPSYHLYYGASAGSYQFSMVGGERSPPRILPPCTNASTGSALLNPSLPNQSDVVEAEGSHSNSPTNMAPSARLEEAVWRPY
Runt-related transcription factor 1 (Homo sapiens) + Core-binding factor subunit beta (Homo sapiens), sequence (Q13951 whole entry, looked up, the tested form may be a part): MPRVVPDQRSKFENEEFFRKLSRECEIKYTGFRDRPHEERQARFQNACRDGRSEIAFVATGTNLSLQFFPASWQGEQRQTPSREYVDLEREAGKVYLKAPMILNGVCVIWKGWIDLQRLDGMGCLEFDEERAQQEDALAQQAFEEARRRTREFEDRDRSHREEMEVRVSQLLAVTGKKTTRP

In the case of `CN1CCc2cccc3c2[C@@H]1Cc1ccc(O)c(O)c1-3`, the IC50 is reported as 7.12 µM.

From PubChem BioAssay AID1438 (Sanford-Burnham Center for Chemical Genomics, 2008)
